From patent US20040191833A1, “Selective activation of cellular activities mediated through a common toll-like receptor” (3M Innovative Properties Company, priority 2003, published 2004)

Tests used:
human TLR7 [1] = target: T1, human TLR7 (Homo sapiens, UniProt Q9NYK1); experiment: TLR7 activation in HEK293 cells (NF-kB-luc luciferase reporter, H-TLR7/H-vector); type: cell-based; conditions: final IRM concentration 10 μM, 16 hours, normalized to the DMSO without compound control
T1 construct: expressed in transfected cells; host or cells: Namalwa cells (ATCC CRL-1432), pCI-neo vector, electroporated, G418 selected, with pIFN-α1-luc reporter
T1 sequence (Q9NYK1 27-1049): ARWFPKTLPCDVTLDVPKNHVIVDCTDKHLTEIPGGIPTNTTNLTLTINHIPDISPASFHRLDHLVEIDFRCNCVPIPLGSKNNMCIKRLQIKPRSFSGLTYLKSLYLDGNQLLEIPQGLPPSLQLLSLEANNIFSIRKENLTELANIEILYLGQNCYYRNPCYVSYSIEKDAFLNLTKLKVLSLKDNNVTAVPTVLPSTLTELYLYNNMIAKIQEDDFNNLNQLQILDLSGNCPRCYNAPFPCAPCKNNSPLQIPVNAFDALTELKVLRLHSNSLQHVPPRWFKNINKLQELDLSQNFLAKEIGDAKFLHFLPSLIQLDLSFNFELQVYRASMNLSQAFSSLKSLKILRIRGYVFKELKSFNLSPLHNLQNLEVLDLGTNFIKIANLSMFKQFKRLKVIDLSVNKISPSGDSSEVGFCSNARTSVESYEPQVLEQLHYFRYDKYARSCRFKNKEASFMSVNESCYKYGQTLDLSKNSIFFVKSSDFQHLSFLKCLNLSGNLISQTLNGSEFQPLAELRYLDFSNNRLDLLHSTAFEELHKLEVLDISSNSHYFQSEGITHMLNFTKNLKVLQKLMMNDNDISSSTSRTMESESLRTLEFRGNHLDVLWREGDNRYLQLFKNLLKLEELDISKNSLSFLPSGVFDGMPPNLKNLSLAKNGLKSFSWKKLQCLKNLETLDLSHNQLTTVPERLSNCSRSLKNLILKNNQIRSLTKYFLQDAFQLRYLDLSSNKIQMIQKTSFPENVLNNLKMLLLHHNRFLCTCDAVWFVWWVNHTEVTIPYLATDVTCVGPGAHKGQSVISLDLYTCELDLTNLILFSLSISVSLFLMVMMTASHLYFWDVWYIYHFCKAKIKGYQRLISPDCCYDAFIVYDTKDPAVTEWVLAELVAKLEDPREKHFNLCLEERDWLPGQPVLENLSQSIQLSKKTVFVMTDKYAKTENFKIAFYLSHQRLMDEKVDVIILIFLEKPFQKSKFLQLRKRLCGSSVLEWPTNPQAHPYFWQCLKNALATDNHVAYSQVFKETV
Method: (§1) In one embodiment, exemplified in Example 1, selective modulation of TLR7-mediated NF-κB activation and TLR7-mediated IFN-α1 induction were assayed. NF-κB activation was measured in genetically modified HEK293 cells (H-TLR7) by detecting TLR7-mediated NF-κB-dependent transcription of a luciferase reporter. IFN-α1 induction was measured in genetically modified Namalwa cells (N-TLR7) by detecting TLR-mediated IFN-α1-induced transcription of a luciferase reporter. Results are shown in Table 2 and are expressed as the fold increase in TLR7-mediated luciferase signal—(H-TLR7/H-vector) and (N-TLR7/N-vector), respectively—normalized to a control in which the cells were treated with vehicle that contained no IRM compound. In this assay, a compound was considered to induce the TLR7-mediated cellular activity if the compound generated at least a two-fold increase in the luciferase signal compared to the vector control.
HEK293 medium was prepared from 90% Minimum Essential Medium (MEM) with 2 mM L-glutamine and Earle's Balanced Salt Solution (Invitrogen Corp., Rockville, Md.) adjusted to contain 1.5 g/L sodium bicarbonate, 0.1 mM non-essential amino acids, and 1.0 mM sodium pyruvate; 10% heat-inactivated fetal calf serum. HEK293 cells were cultured by incubating cells in HEK293 medium overnight at 37° C, 8% CO2.
Twenty-four hours before transfection, HEK293 cells were adhered to a 10 cm dish (Corning 430167, Corning Inc., Corning, N.Y.) at 37° C., 8% CO2. The cells were co-transfected with (1) pIRES (BD Biosciences Clontech, Palo Alto, Calif.) either (a) unmodified (H-vector), or (b) containing an expressible human TLR7 gene (H-TLR7), and (2) NF-kB-luc reporter (Stratagene, La Jolla, Calif.) in a 10:1 ratio with Fugene 6 transfection reagent (Roche Diagnostics Corp., Indianapolis, Ind.) following the manufacturer's instructions. The plates were incubated for 24 hours following transfection and then selected in G-418 (400 μg/mL) for two weeks. The G-418-resistant cells containing either the expressible TLR7 gene or the empty vector were expanded in HEK293 medium supplemented with G-418 for stimulation experiments.
The transfected cells were plated in white opaque 96 well plates (Costar 3917, Corning Inc., Corning, N.Y.) at a concentration of 5×10^4 cells per well in 100 μL of HEK293 media and incubated at 37° C., 8% CO2 for 4 hours. The cells were stimulated with 1 μL of IRM compounds at 1 mM in DMSO (final IRM concentration of 10 μM) or 1 μL DMSO as a control. The plates were then incubated an additional 16 hours at 37° C., 5% CO2. The luciferase signal was read using the LucLite kit (Packard Instrument Co., Meriden, Conn.). Luminescence was measured on an LMAX luminometer (Molecular Devices Corp., Sunnyvale, Calif.).
(§2) The data are expressed as fold increase in TLR7-mediated luciferase signal—(H-TLR7/H-vector) and (N-TLR7/N-vector), respectively—normalized to the DMSO without compound control.

human TLR7 [2] = target: T1, human TLR7; experiment: TLR7 activation in Namalwa cells (IFN-α1 promoter luciferase reporter, N-TLR7/N-vector); type: cell-based; conditions: final IRM concentration 10 μM, 18 hours, normalized to the DMSO without compound control
Method: as §1
Unless otherwise indicated, all incubations were performed at 37° C. with 5% CO2 at 98% humidity.
Culture medium was prepared from complete RPMI 1640 medium (BioSource International, Inc., Camarillo, Calif.). Fetal bovine serum (Atlas Biologicals, Inc., Ft. Collins, Colo.) was added to a final concentration of 7.5% (vol/vol); L-glutamine (BioSource International, Inc.) was added to 5 mM; and sodium pyruvate (BioSource International, Inc.) was added to 1 mM.
Namalwa cells were grown by incubation in culture medium overnight. Cells were harvested by centrifugation in a tabletop centrifuge (1200 RPM for 5 minutes), and then resuspended in phosphate buffered sucrose to a concentration of 1.3×10^7 cells/mL.
For each transfection, a 750 μL aliquot of the cell suspension was placed in an electroporation cuvette with 4 mm gaps. Each aliquot received transfection DNA: 10 μg of pGL3-Enhancing vector (Promega Corp., Madison, Wis.) containing the human IFN-α1 promoter cloned into the BglII site (pIFN-α1-luc), and 10 μg of pCI-neo mammalian expression vector (Promega Corp.) either (1) unmodified (N-vector) or (2) containing an expressible human TLR7 gene (N-TLR7). The cell and vector mixtures were incubated at room temperature for 5 minutes. The cells were electroporated using a BioRad Gene Pulser (BioRad Laboratories, Hercules, Calif.) set to at 500 μF capacitance and […], then incubated at room temperature for 5 minutes.
The electroporated cells were suspended in 10 mL of culture medium and incubated overnight. Dead cells and debris were removed after 24 hours using a MACS Dead Cell Removal kit (Miltenyi Biotec, Auburn, Calif.). Cells were resuspended in 10 mL of culture medium and incubated for an additional 24 hours.
Transfected cells were selected by adding G418 (Promega Corp., Madison, Wisc.) to a final concentration of 1 mg/mL and incubating the cells for seven days.
The selected transfected cells were counted and resuspended to a concentration of 1×10^6 cell per mL in culture medium. 100 μl aliquots of cells were placed in the wells of a white-walled, white-bottomed 96-well plate (Corning, Inc. Corning, N.Y.). 1.0 μL of an IRM compound from Table 1 (prepared at 1 mM in 100% DMSO) was added to some cell aliquots so that the final concentration of IRM compound was 10 μM. As a positive control, some cell aliquots were incubated with Sendai virus instead of IRM compound. As a negative control, some cell aliquots were incubated with DMSO without IRM compound. In all cases, the cells were incubated for 18 hours.
The plates were equilibrated to room temperature before 1 volume of reconstituted LucLight Plus (Packard Instruments, Meriden, Conn.) was added to each aliquot of cells. Each well of the plate was read on an LJL Analyst (LJL Biosystems, Inc., Sunnyvale, Calif.) set with a 5 minute dark adapt.
as §2

SMILES	H-TLR7: fold increase in TLR7-mediated luciferase signal (H-TLR7/H-vector), NF-κB-dependent reporter (human TLR7 [1]) [fold]	N-TLR7: fold increase in TLR7-mediated luciferase signal (N-TLR7/N-vector), IFN-α1 promoter reporter (human TLR7 [2]) [fold]
CCCCc1nc2c(N)nc3ncccc3c2n1CC(C)C [IRM10, 2-butyl-1-(2-methylpropyl)-1H-imidazo[4,5-c][1,8]naphthyridin-4-amine]	1.1	4.4
COCCOCc1nc2c(N)nc3ccccc3c2n1CCOc1ccccc1 [IRM15, 2-[(2-methoxyethoxy)methyl]-1-(2-phenoxyethyl)-1H-imidazo[4,5-c]quinolin-4-amine]	0.8	2.7
CCCc1nc2c(N)nc3ccccc3c2n1CCCCS(C)(=O)=O [IRM21, 1-[4-(methylsulfonyl)butyl]-2-propyl-1H-imidazo[4,5-c]quinolin-4-amine]	0.7	3.8
CCCCc1nc2c(N)nc3ccccc3c2n1CCCCCS(C)(=O)=O [IRM23, 2-butyl-1-[5-(methylsulfonyl)pentyl]-1H-imidazo[4,5-c]quinolin-4-amine]	9.4	2.8
COCCc1nc2c(N)nc3c(c2n1CC(C)(C)NS(C)(=O)=O)CCCC3 [IRM25, N-{2-[4-amino-2-(2-methoxyethyl)-6,7,8,9-tetrahydro-1H-imidazo[4,5-c]quinolin-1-yl]-1,dimethylethyl}methanesulfonamide]	7.6	3.0
Cc1nc2c(N)nc3ccccc3c2n1CCOCCNC(=O)c1ccccc1 [IRM17, N-{2-[2-(4-amino-2-methyl-1H-imidazo[4,5-c]quinolin-1-yl)ethoxy]ethyl}benzamide]	0.4	3.1
CCOCc1nc2c(N)nc3ccccc3c2n1CCCCNC(=O)N1CCOCC1 [IRM18]	0.5	3.3
CCOCc1nc2c(N)nc3ccccc3c2n1CCC(C)C [IRM9, 2-ethoxymethyl-1-(3-methylbutyl)-1H-imidazo[4,5-c]quinolin-4-amine]	0.7	2.6
CCCCSCCCCn1c(CC)nc2c(N)nc3ccccc3c21 [IRM6, 1-[4-(butylthio)butyl]-2-ethyl-1H-imidazo[4,5-c]quinolin-4-amine]	7.1	1.4
Cc1nc2c(N)nc3ccccc3c2n1CCOC/C=C/c1ccccc1 [IRM5, 2-methyl-1-(2-{[(2E)-3-phenylprop-2-enyl]oxy}ethyl)-1H-imidazo[4,5-c]quinolin-4-amine]	3.4	1.6
CC(C)Cn1c(CO)nc2c(N)nc3c(c21)CCCC3 [IRM8, 2-hydroxymethyl-1-(2-methylpropyl)-6,7,8,9-tetrahydro-1H-imidazo[4,5-c]quinolin-4-amine]	0.4	3.0
CCCCc1nc2c(N)nc3cccnc3c2n1CCNC(=O)C(N)CC(C)C (stereo not drawn) [IRM11, N^1-[2-(4-amino-2-butyl-1H-imidazo[4,5-c][1,5]naphthyridin-1-yl)ethyl]-2-amino-4-methylpentanamide]	0.5	2.8
